Values quoted from earlier work, collected in US20170071839A1, “Personal care and medicinal products incorporating organosulfur groups” (priority 2015, published 2017).
Read-outs that look alike come from different tables or passages of the source.

What was measured:
[1] = after garlic consumption
[2] = shelf stability
[3] = after fresh garlic (e.g. 25 g) or pure allicin (60 mg)
[4] = not given; remark: listed apart in the source
[5] = test system: LDL
[6] = test system: NFkB; details: macrophages
[7] = test system: total glutathione level of cells
[8] = test system: acetaminophen (Tylenol) poisoning
[9] = test system: Salmonella typhimurium and E. coli
[10] = test system: nematicidal activity
[11] = test system: E-coli O157:H7
[12] = biological target: NFkB signal transduction proteins p50 and P65 (Homo sapiens, UniProt P19838+Q04206)

In the case of `C=CCSC` [AMS, allyl methyl sulfide], the “time of disappearance from breath” value [1] is listed as 20 h.
For `C=CCS[S+]([O-])CC=C` (stereo not drawn) [Allicin, DiAllylThioSulfinate], the half-life [2] is given as “weeks to months”, the “Reaction in Blood Product (moles)” value is given as “AllylSH (1.6)” and the “time to be metabolized to allyl mercaptan” value (red blood cells exposed to allicin) is given as “less than one”. The “detection in blood, urine, or stool” value [3] was “undetectable”.
In the case of `C=CCS` [AllylSH, AllylThiol], the solubility [4] is given as “water soluble” and the “time of disappearance from breath” value [1] is given as at most 1 h.
For `N[C@@H](CSSC[C@H](N)C(=O)O)C(=O)O` [Cysteine disulfide, Cystine], the solubility [4] is listed as “low solubility”.
In the case of `C=CCSSCC=C` [DADS, Diallyl Disulfide], the “Reaction in Blood Product (moles)” value is listed as “AllylSH (0.8)”.
For `C=CCSC[C@H](NC(C)=O)C(=O)O` [N-acetyl-S-allylcysteine], the “effect on Cu2+ induced LDL oxidation” value [5] is given as “significantly reduce”.
In the case of `N[C@@H](CSN=O)C(=O)O` [S-Nitrosocysteine], the “concentration that nearly completely inhibits the activation of NFkB” value [6] is listed as 1 micro-mole.
For `C=CCSC[C@H](N)C(=O)O` [S-allylcysteine], the “effect on Cu2+ induced LDL oxidation” value [5] is listed as “significantly reduce”.
In the case of `C=CCSSC[C@H](N)C(=O)O` [SAMC, S-AllylMercaptoCysteine], the “total glutathione level of cells” value [7] is given as “significantly increase the total glutathione level”, the “protection from acetaminophen poisoning” value ([8]; post treatment, single dose 200 mg/kg) is given as “protective” and the “protection from acetaminophen poisoning” value ([8]; pretreatment) is given as “protect mice”. The “Reaction in Blood Product (moles)” value was “AllylSH (0.8)” and the “effect on Cu2+ induced LDL oxidation” value [5] was “significantly reduce”.
In the case of `CCCSSCCC` [di-n-proply disulfide], the antibiotic effectiveness [9] is listed as “antibiotic effectiveness”.
For `CCCS[S+]([O-])CCC` (stereo not drawn) [dipropylthiosulfinate], the nematicidal activity [10] is listed as “most effective compound”.
For `C=CCS[S+](C)[O-]` (stereo not drawn) [methyl allyl thiosulfinate], the “activity against E-coli O157:H7” value [11] is listed as “effective”.
For `CS[S+](C)[O-]` (stereo not drawn) [methyl methane thiosulfinate], the “activity against E-coli O157:H7” value [11] is given as “effective”.
For `C=CCSSCCC` [n-propyl allyl disulfide], the antibiotic effectiveness [9] is given as “antibiotic effectiveness”.
In the case of `[N]=O` [nitric oxide], the “concentration that inhibited the DNA binding activity” value [12] is given as 20-100 nano mole.
In the case of S-allylcysteine sulfoxide [alliin], the “effect on Cu2+ induced LDL oxidation” value [5] is given as “significantly reduce”.
